Test [1] concerns the target T1, human Adenosine A1 receptor (Homo sapiens, UniProt P30542).
T1 construct: host or cells: CHO-K1
T1 sequence (P30542 1-326): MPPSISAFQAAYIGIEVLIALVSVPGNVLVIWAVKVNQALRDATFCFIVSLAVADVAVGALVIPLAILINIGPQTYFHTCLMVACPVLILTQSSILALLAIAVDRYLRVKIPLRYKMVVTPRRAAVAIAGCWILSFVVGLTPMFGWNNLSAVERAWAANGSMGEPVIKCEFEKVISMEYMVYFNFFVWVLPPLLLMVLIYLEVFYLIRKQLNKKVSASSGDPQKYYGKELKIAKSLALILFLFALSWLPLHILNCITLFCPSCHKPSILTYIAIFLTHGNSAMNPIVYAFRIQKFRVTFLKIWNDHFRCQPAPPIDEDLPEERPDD
Put plainly: GTPγS scintillation proximity assay, agonist testing. It is filed as biochemical. Conditions: agonist activity; membrane extracts of CHO-K1 cells expressing recombinant human A1; read-out: A1AR EC50. On the procedure:
(§1) SPA ^35S-GTPγS experiments were conducted with Epics Therapeutics membrane preparations. cAMP HTRF assays were conducted with recombinant cell lines.
• Assay buffer: 20 mM HEPES pH 7.4; 100 mM NaCl, 10 μg/mL saponin, MgCl2 at optimized concentration for the specific receptor. • Membranes: membrane extracts prepared from CHO-K1 cells expressing recombinant human Adenosine A1 receptor, thawed on ice, diluted in assay buffer and kept on ice. • GDP: diluted in assay buffer at the optimized concentration for the specific receptor Beads: PVT-WGA (Perkin Elmer, RPNQ001), diluted in assay buffer at 50 mg/mL (0.5 mg/10 μL) • GTPγ^35S: (Perkin Elmer, NEG030X), diluted in assay buffer for a final 0.1 nM assay concentration
Protocol for agonist testing: membranes are mixed with GDP (volume:volume). In parallel, GTPγ[^35S] is mixed with the beads (volume:volume) just before starting the reaction. The following reagents are successively added in the wells of an Optiplate (Perkin Elmer): 50 μL of test or reference ligand, 25 μL of the membranes:GDP mix, and 25 μL of the GTPγ[^35S]:beads mix. The plates are covered with a top seal, mixed on an orbital shaker for 2 min, and then incubated for 1 hour at room temperature. Then the plates are centrifuged for 10 min at 2000 rpm, incubated at room temperature and counted for 30 sec/well with a PerkinElmer TopCount™ reader. • Conditions for the GTPγS scintillation proximity assay are shown in Table 14.
On the technique in general: Scintillation proximity formats need no separation of bound from free tracer.

Another test addresses T2, human A2B (Homo sapiens, UniProt P29275).
T2 construct: expressed in transfected cells; host or cells: HEK293
T2 sequence (P29275 1-332): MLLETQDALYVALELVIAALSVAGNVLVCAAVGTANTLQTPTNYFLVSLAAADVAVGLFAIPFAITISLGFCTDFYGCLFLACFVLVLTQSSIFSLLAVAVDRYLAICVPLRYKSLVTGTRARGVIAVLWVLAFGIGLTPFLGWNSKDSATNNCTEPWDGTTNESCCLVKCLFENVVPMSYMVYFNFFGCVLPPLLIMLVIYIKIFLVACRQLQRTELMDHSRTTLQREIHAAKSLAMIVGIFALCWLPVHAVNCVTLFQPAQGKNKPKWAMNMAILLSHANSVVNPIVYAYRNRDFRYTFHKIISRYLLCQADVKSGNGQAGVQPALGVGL
Put plainly: cAMP HTRF assay for Gs coupled receptor, agonist test. The format is cell-based. Conditions: agonist activity; HEK293 cells expressing recombinant human A2B; read-out: A2BAR EC50. As for the experimental part:
as §1
Dose response curves are performed in parallel with the reference compounds.
For agonist test (96 well): 12 μL of cells are mixed with 12 μL of the test compound at increasing concentrations and then incubated 30 min at room temperature. After addition of the lysis buffer containing cAMP-d2 and anti-cAMP cryptate detection reagents, plates are incubated 1 hour incubation at room temperature, and fluorescence ratios are measured according to the manufacturer specification, with the HTRF kit.
(In general: In TR-FRET formats the signal depends on donor and acceptor labels being close together.)

Each structure is given as a SMILES string. Some results are limits rather than exact numbers.

As a reminder, the EC50 is the concentration at which the effect is half-maximal. As for `COCCOc1ccc(-c2c(C#N)c(SCC3COC3)nc(N3CC(O)C3)c2C#N)cc1` [Compound 270], the concentration for a half-maximal effect (EC50) in test [1] is 205 nM; on human A2B, more than 10000 nM.
Take `Cc1ccc(CSc2nc(N3CCCC3)c(C#N)c(-c3ccc(OCCO)cc3)c2C#N)cn1` [Compound 70]: the EC50 amounted to 469 nM in test [1] and 209 nM on human A2B.
`CC(O)COc1ccc(-c2c(C#N)c(N)nc(SCc3cccnc3)c2C#N)cc1` (centres unmarked) [Compound 56, 2-Amino-4-[4-(2-hydroxy-propoxy)phenyl]-6-(3-pyridylmethylsulfanyl)pyridine-3,5-dicarbonitrile]: the EC50 in test [1] worked out at 8.6 nM; at human A2B, 0.08 nM.
The matching figures for `COCCOc1ccc(-c2c(C#N)c(N)nc(SCc3cccc4[nH]cnc34)c2C#N)cc1` [Compound 215]: more than 10000 nM and more than 10000 nM.
The matching figures for `COCCOc1ccc(-c2c(C#N)c(N)nc(SCC(=O)O)c2C#N)cc1` [Compound 68]: more than 10000 nM and 4230 nM.
With `CNC(=O)CSc1nc(N)c(C#N)c(-c2ccc(OCCO)cc2)c1C#N` [Compound 139], the EC50 in test [1] is 87 nM; on human A2B it was 4.5 nM.
The matching figures for `N#Cc1c(N)nc(SCC2OCCCO2)c(C#N)c1-c1ccc(OC2COC2)cc1` [Compound 291]: 208 nM and 9890 nM.
For the compound `CNc1nc(SCC2COC2)c(C#N)c(-c2ccc(OC3COC3)cc2)c1C#N` [Compound 230], the EC50 in test [1] was 5.2 nM; on human A2B it was more than 10000 nM.
For the compound `CCOCCSc1nc(N)c(C#N)c(-c2ccc(OCCOC)cc2)c1C#N` [Compound 34], the figures for the EC50 (in test [1]; at human A2B) were 245 nM and more than 10000 nM, respectively.
In the case of `N#Cc1c(SCc2cccnn2)nc(C2CC2)c(C#N)c1-c1ccc(OCCOC2COC2)cc1` [Compound 242], the EC50 worked out at 905 nM in test [1] and 749 nM at human A2B.
The like results for `N#Cc1c(SCc2cccnc2)nc(N2CCC2)c(C#N)c1-c1ccc(OC(F)(F)CO)cc1` [Compound 259, 2-(Azetidin-1-yl)-4-(4-(1,1-difluoro-2-hydroxyethoxy)phenyl)-6-((pyridin-3-ylmethyl)thio)pyridine-3,5-dicarbonitrile] were, in that order, more than 10000 nM and 198 nM.
`CC(O)CSc1nc(N2CCCC2)c(C#N)c(-c2ccc(OCCO)cc2)c1C#N` (centres unmarked) [Compound 106]: the EC50 in test [1] is 502 nM; on human A2B, more than 10000 nM.
For the compound `CNC(=O)CSc1nc(N2CCC2)c(C#N)c(-c2ccc(OCCOC)cc2)c1C#N` [Compound 78], the EC50 in test [1] was 643 nM; on human A2B, more than 10000 nM.
In the case of `COC1CC(Oc2ccc(-c3c(C#N)c(N)nc(SCC4COC4)c3C#N)cc2)C1` (centres unmarked) [Compound 323], the EC50 is 227 nM in test [1] and more than 10000 nM on human A2B.
For the compound `COCCOc1ccc(-c2c(C#N)c(N)nc(SCc3cccc(OC(F)(F)F)c3)c2C#N)cc1` [Compound 35], the results for the half-maximal effective concentration (EC50) (in test [1]; at human A2B) were 238 nM and more than 10000 nM, respectively.
Take `COCCOc1ccc(-c2c(C#N)c(N)nc(SCc3cccc4[nH]ncc34)c2C#N)cc1` [Compound 214]: the EC50 (in test [1]; at human A2B) was more than 10000 nM each time.
As to `N#Cc1c(SCc2cccnc2)nc(N2CCC2)c(C#N)c1-c1ccc(OCCOC(F)F)cc1` [Compound 262], the EC50 (in test [1]; on human A2B) was more than 10000 nM each time.
In the case of `N#Cc1c(N)nc(SCC2COC2)c(C#N)c1-c1ccc(OCCO)cc1` [Compound 223], the EC50 in test [1] was determined as 1.5 nM; at human A2B it was 401 nM.
The like results for `CN(Cc1cccnc1)c1nc(N)c(C#N)c(-c2ccc(OCCO)cc2)c1C#N` [Compound 160] were, in that order, 130 nM and 56 nM.
The matching figures for `N#Cc1c(N)nc(SCc2ccncc2)c(C#N)c1-c1ccc(OCCO)cc1` [Compound 174]: 8.1 nM and 0.5 nM.
The like results for `N#Cc1c(SCc2cccnc2)nc(N2CCC2)c(C#N)c1-c1ccc(OCCO)cc1` [Compound 116] were, in that order, 2.9 nM and 3.9 nM.
With `N#Cc1c(N)nc(SCc2cccnc2)c(C#N)c1-c1ccc(O[C@H]2C[C@@H](O)C2)cc1` [Compound 296, 2-Amino-4-(4-((1s,3s)-3-hydroxycyclobutoxy)phenyl)-6-((pyridin-3-ylmethyl)thio)pyridine-3,5-dicarbonitrile], the EC50 in test [1] stood at 20.6 nM; at human A2B, 2.47 nM.
Regarding `N#Cc1c(SCCO)nc(N2CCC2)c(C#N)c1-c1ccc(OCCO)cc1` [Compound 90], the values for the EC50 (in test [1]; at human A2B) were 347 nM and 869 nM, respectively.
For the compound `COCCOc1ccc(-c2c(C#N)c(SCc3cccnn3)nc(N3CC(F)C3)c2C#N)cc1` [Compound 238], the EC50 (in test [1]; at human A2B) was more than 10000 nM each time.
In the case of `Cn1ccc2c(CSc3nc(N)c(C#N)c(-c4ccc(OC5COC5)cc4)c3C#N)cccc21` [Compound 302], the EC50 in test [1] is 64.8 nM; at human A2B, 894 nM.
For `COCCOc1ccc(-c2c(C#N)c(SCc3cccnc3)nc(N3CCC3)c2C#N)cc1` [Compound 115], the EC50 in test [1] is 31 nM; on human A2B, more than 10000 nM.
The matching figures for `N#Cc1c(N)nc(SCc2cnccn2)c(C#N)c1-c1ccc(OCCOC(F)F)cc1` [Compound 235]: 3280 nM and 1970 nM.
The like results for `CC(C)(O)COc1ccc(-c2c(C#N)c(N)nc(SCc3cccnc3)c2C#N)cc1` [Compound 51] were, in that order, 38 nM and 5.1 nM.
The matching figures for `Cc1ncccc1CSc1nc(N2CCCC2)c(C#N)c(-c2ccc(OCCO)cc2)c1C#N` [Compound 76]: more than 10000 nM and 4370 nM.
As to `N#Cc1c(N)nc(SCC2COC2)c(C#N)c1-c1ccc(O[C@H]2C[C@H](O)C2)cc1` [Compound 303], the values for the EC50 (in test [1]; at human A2B) were 78.5 nM and more than 10000 nM, respectively.
Regarding `COCCOc1ccc(-c2c(C#N)c(N)nc(SCC3CCOC3)c2C#N)cc1` (centres unmarked) [Compound 36], the EC50 was 124 nM in test [1] and more than 10000 nM on human A2B.
The matching figures for `N#Cc1c(N)nc(OCC2CCCOC2)c(C#N)c1-c1ccc(OC2COC2)cc1` (centres unmarked) [Compound 300, 2-Amino-4-(4-(oxetan-3-yloxy)phenyl)-6-((tetrahydro-2H-pyran-3-yl)methoxy)pyridine-3,5-dicarbonitrile]: 1150 nM and more than 10000 nM.
The matching figures for `CN(C)c1nc(SCc2cccnc2)c(C#N)c(-c2ccc(OCCOC(F)F)cc2)c1C#N` [Compound 253]: more than 10000 nM and more than 10000 nM.
Turning to `COCCOc1ccc(-c2c(C#N)c(SCc3cccnc3)nc(N3CC(O)C3)c2C#N)cc1` [Compound 278], the EC50 was 13.9 nM in test [1] and more than 10000 nM on human A2B.
With `N#Cc1c(SCC2COC2)nc(N2CC(F)C2)c(C#N)c1-c1ccc(OCCO)cc1` [Compound 275], the EC50 in test [1] was 55.9 nM; on human A2B it was more than 10000 nM.
Take `COc1cccc(CSc2nc(N)c(C#N)c(-c3ccc(OC4COC4)cc3)c2C#N)c1` [Compound 33]: the EC50 in test [1] was determined as 7.9 nM; at human A2B it was 563 nM.
The matching figures for `CC(C)(O)COc1ccc(-c2c(C#N)c(N)nc(SCC3COC3)c2C#N)cc1` [Compound 317]: 88.7 nM and more than 10000 nM.
Regarding `COCCOc1ccc(-c2c(C#N)c(N)nc(SCc3cncnc3)c2C#N)cc1` [Compound 198], the EC50 was 80 nM in test [1] and more than 10000 nM at human A2B.
Turning to `COC1CC(Oc2ccc(-c3c(C#N)c(N)nc(SCC4CCOC4)c3C#N)cc2)C1` (centres unmarked) [Compound 321], the EC50 (in test [1]; at human A2B) was more than 10000 nM each time.
Turning to `N#Cc1c(N)nc(SCc2cccc3[nH]ccc23)c(C#N)c1-c1ccc(OCCO)cc1` [Compound 8], the EC50 in test [1] worked out at 37.1 nM; at human A2B it was 37.7 nM.

The record behind these values is patent US20250170112A1, “ADENOSINE LIGANDS FOR THE TREATMENT OF NEUROLOGICAL DISORDERS” (Lucy Therapeutics, Inc., priority 2022, published 2025).
